Test systems include IGROV1 ovarian; SF-295 CNS; HCC-2998 colon; A498 renal; HT29 colon; SNB-75 CNS; EKVX NSCLC; MOLT-4 leukemia; KM12 colon; NCI/ADR-RES ovarian; BT-549 breast; MCF7 breast; T-47D breast.
Holding throughout (experiment): NCI tumour cell line growth inhibition, 48 h

Each structure is given as a SMILES string. Values joined by “and” are separate entries in the source; they are usually repeats but may differ in a detail not shown here. Equal entries are not always repeated.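 Method: 48-hour compound exposure of cells in 96-well plates, five concentrations, linear interpolation of endpoints. The concentration for 50% growth inhibition is given as GI50. Definition used: TGI = concentration required for complete inhibition of growth.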

Take `CC[n+]1c(/C=C/c2ccc(N(CCCl)CCCl)cc2)ccc2cc(Br)ccc21`: the TGI in the experiment with IGROV1 ovarian stood at 18.4 µM; in the experiment on HCC-2998 colon, 3.13 µM; in the experiment with A498 renal, 6900 µM; with SNB-75 CNS, 0.936 µM; with KM12 colon, 3.3 µM. Moreover, the GI50 with SF-295 CNS was 1.15 mM; with HT29 colon, 548 µM; in the experiment with EKVX NSCLC it was 1.06 mM; in the experiment with MOLT-4 leukemia, 109 µM.

For the molecule `COc1ccc(-c2c(C(=O)Nc3ccccc3)c(-c3ccccc3)n(C3OC(CO)C(O)C(O)C3O)c(=S)c2C#N)cc1` (configuration not stated), the TGI in the experiment with IGROV1 ovarian, in the experiment on NCI/ADR-RES ovarian, in the experiment with SF-295 CNS, in the experiment on HCC-2998 colon, in the experiment with A498 renal and in the experiment on BT-549 breast was > 100 µM throughout. Also, the TGI in the experiment with HT29 colon, in the experiment with EKVX NSCLC, in the experiment with MOLT-4 leukemia, with KM12 colon and with MCF7 breast was > 100 µM in each case.

For `CCOC(=O)C(NC(=O)Nc1ccccc1F)(OC)C(F)(F)F` (configuration not stated), the TGI in the experiment with IGROV1 ovarian, in the experiment on NCI/ADR-RES ovarian, in the experiment with HCC-2998 colon, with A498 renal, in the experiment with BT-549 breast and with HT29 colon was > 100 µM throughout. For the same molecule, the TGI in the experiment on SNB-75 CNS, with T-47D breast, in the experiment with EKVX NSCLC and with MOLT-4 leukemia was > 100 µM in each case.

As to `CCOC(=O)c1cc(NC(=O)c2ccccc2)c(=O)n2c(cc3c(Cl)cccc32)c1O`, the TGI in the experiment with IGROV1 ovarian, in the experiment on NCI/ADR-RES ovarian, in the experiment with SF-295 CNS, in the experiment with HCC-2998 colon, with A498 renal and with BT-549 breast was > 100 µM each time. The TGI in the experiment on HT29 colon, in the experiment with EKVX NSCLC, in the experiment with MOLT-4 leukemia, in the experiment on KM12 colon and in the experiment on MCF7 breast was > 100 µM in each case.

As to `COc1cccc(/C=N/[N-]C(N)=O)c1[O-].[OH3+].[Zn+2]`, the TGI in the experiment on IGROV1 ovarian, with SF-295 CNS, with HCC-2998 colon, in the experiment on A498 renal, in the experiment on HT29 colon and in the experiment on SNB-75 CNS was > 100 µM each time. Moreover, the TGI with EKVX NSCLC, in the experiment with MOLT-4 leukemia and in the experiment with KM12 colon was > 100 µM in each case.

With `COc1cc(-c2c(C(C)=O)c(-c3ccccc3)n(C3OC(COC(C)=O)C(OC(C)=O)C(OC(C)=O)C3OC(C)=O)c(=S)c2C#N)ccc1O` (configuration not stated), the GI50 in the experiment with IGROV1 ovarian is 31.8 µM and > 100 µM; in the experiment with HCC-2998 colon, > 100 µM and 29.6 µM. For the same molecule, the TGI in the experiment on IGROV1 ovarian was > 100 µM; in the experiment on NCI/ADR-RES ovarian, > 100 µM; with SF-295 CNS, > 100 µM; in the experiment with HCC-2998 colon, > 100 µM and 79.5 µM; in the experiment with A498 renal, > 100 µM; in the experiment on BT-549 breast it was 82.4 µM. Further, the TGI in the experiment with HT29 colon, in the experiment with EKVX NSCLC, in the experiment on MOLT-4 leukemia, in the experiment on KM12 colon and in the experiment on MCF7 breast was > 100 µM in each case.

On to `N=C1SCCS1`, for which the TGI with IGROV1 ovarian, in the experiment with SF-295 CNS, with HCC-2998 colon, in the experiment on HT29 colon, in the experiment on SNB-75 CNS and in the experiment with EKVX NSCLC was > 100 µM each time. Further, the TGI in the experiment on MOLT-4 leukemia and in the experiment on KM12 colon was > 100 µM in each case.

For the molecule `NC1=NC(=O)[C@H](CSCc2ccccc2)N1C(=O)OCc1ccccc1`, the TGI with IGROV1 ovarian, in the experiment with NCI/ADR-RES ovarian, in the experiment with SF-295 CNS, in the experiment with HCC-2998 colon, with A498 renal and in the experiment on BT-549 breast was > 100 µM in each case. The TGI with HT29 colon, in the experiment on SNB-75 CNS, in the experiment on EKVX NSCLC, in the experiment on MOLT-4 leukemia, in the experiment on KM12 colon and with MCF7 breast was > 100 µM in each case.

Take `Brc1ccc(C2(N3CCCCC3)CCCCC2)s1`: the TGI was > 100 µM with IGROV1 ovarian; > 100 µM in the experiment with SF-295 CNS; 35.3 µM with HCC-2998 colon; > 100 µM in the experiment on A498 renal; > 100 µM in the experiment on BT-549 breast; > 100 µM in the experiment on HT29 colon. Moreover, the TGI in the experiment on T-47D breast is 49.5 µM; in the experiment with EKVX NSCLC, > 100 µM; in the experiment with MOLT-4 leukemia, 34.2 µM; in the experiment on KM12 colon it was > 100 µM; in the experiment on MCF7 breast, > 100 µM.

As to `NC(=S)NS(=O)(=O)c1ccc(F)cc1`, the TGI with IGROV1 ovarian, in the experiment with NCI/ADR-RES ovarian, in the experiment with SF-295 CNS, with HCC-2998 colon, in the experiment with BT-549 breast and in the experiment with HT29 colon was > 100 µM throughout. Further, the TGI in the experiment on SNB-75 CNS, in the experiment on T-47D breast, in the experiment with EKVX NSCLC, with MOLT-4 leukemia and in the experiment with KM12 colon was > 100 µM each time.

On to `COC(=O)[C@H]1[C@H](OC(=O)[C@@H](OC)c2ccccc2)ON2CC[C@@H](OC(=O)c3ccccc3)[C@H]12`, for which the TGI in the experiment on IGROV1 ovarian was > 100 µM; in the experiment on NCI/ADR-RES ovarian it was > 100 µM; with SF-295 CNS it was > 100 µM; in the experiment with HCC-2998 colon it was > 100 µM; in the experiment on A498 renal, 23.1 µM; in the experiment with HT29 colon, > 100 µM. Also, the TGI was 65.1 µM in the experiment on SNB-75 CNS; > 100 µM in the experiment on T-47D breast; > 100 µM with EKVX NSCLC; > 100 µM with MOLT-4 leukemia; > 100 µM in the experiment with KM12 colon; 22 µM in the experiment with MCF7 breast.

For `COC(=O)C1CCCCCCCCCCC12SCCCS2` (configuration not stated), the TGI with IGROV1 ovarian was determined as 39.1 µM; in the experiment on NCI/ADR-RES ovarian it was 43.1 µM; in the experiment on SF-295 CNS it was 39 µM; in the experiment with HCC-2998 colon, 61 µM; in the experiment with A498 renal, 49.7 µM; in the experiment with HT29 colon, 91.5 µM. The TGI was 81.2 µM in the experiment on SNB-75 CNS; > 100 µM in the experiment with T-47D breast; 35.6 µM with EKVX NSCLC; 45 µM in the experiment on MOLT-4 leukemia; 36 µM in the experiment on KM12 colon; > 100 µM in the experiment on MCF7 breast.

As for `COc1ccc(/C=N/Nc2nc3ccccc3c(=O)n2-c2ccccc2)cc1`, the TGI in the experiment on IGROV1 ovarian, with NCI/ADR-RES ovarian, in the experiment with SF-295 CNS, in the experiment with HCC-2998 colon, with A498 renal and in the experiment on HT29 colon was > 100 µM each time. Besides, the TGI in the experiment on SNB-75 CNS is > 100 µM; with T-47D breast it was > 100 µM; with EKVX NSCLC, > 100 µM; in the experiment on MOLT-4 leukemia it was > 100 µM; in the experiment with KM12 colon, > 100 µM; with MCF7 breast it was 40.5 µM.

On to `CCOC(=O)CC(=O)Nc1c(C(=O)OCC)sc2nc(SC)nc(Nc3ccc(OC)c(OC)c3)c12`, for which the TGI in the experiment on IGROV1 ovarian is > 100 µM; with NCI/ADR-RES ovarian it was > 100 µM; in the experiment with SF-295 CNS, 76.1 µM; in the experiment on HCC-2998 colon, > 100 µM; with A498 renal, 82.4 µM; in the experiment on BT-549 breast, > 100 µM. Moreover, the TGI in the experiment with HT29 colon is > 100 µM; in the experiment with SNB-75 CNS, 21.9 µM; in the experiment on EKVX NSCLC, > 100 µM; in the experiment on KM12 colon, > 100 µM; in the experiment with MCF7 breast it was > 100 µM.

Consider `c1ccc(NC2(c3nnnn3C3CCCCC3)CCNCC2)cc1`, for which the TGI with IGROV1 ovarian is > 100 µM; in the experiment with NCI/ADR-RES ovarian it was > 100 µM; in the experiment with SF-295 CNS, 34.6 µM; in the experiment with HCC-2998 colon, 27.3 µM; in the experiment with A498 renal, 51 µM; in the experiment on HT29 colon it was 35.8 µM. Also, the TGI with SNB-75 CNS amounted to 32.7 µM; with T-47D breast it was 52.1 µM; in the experiment on EKVX NSCLC, 79.7 µM; with MOLT-4 leukemia it was 43.5 µM; with KM12 colon it was 31.3 µM; in the experiment with MCF7 breast, 35.1 µM.

On to `CSC(=S)Nc1cc(C)ccn1`, for which the TGI in the experiment with IGROV1 ovarian is 58 µM; in the experiment on NCI/ADR-RES ovarian, > 100 µM; in the experiment with SF-295 CNS, > 100 µM; with HCC-2998 colon, > 100 µM; with HT29 colon, > 100 µM; with SNB-75 CNS it was > 100 µM. In addition, the TGI with T-47D breast, in the experiment with EKVX NSCLC, with MOLT-4 leukemia, in the experiment with KM12 colon and in the experiment on MCF7 breast was > 100 µM throughout.

In the case of `Cc1ccc(CCCC(=O)O)cc1C`, the TGI in the experiment with IGROV1 ovarian, in the experiment on NCI/ADR-RES ovarian, in the experiment with SF-295 CNS, in the experiment with BT-549 breast, in the experiment with HT29 colon and with SNB-75 CNS was > 100 µM throughout. In addition, the TGI in the experiment on EKVX NSCLC, in the experiment with MOLT-4 leukemia and in the experiment on KM12 colon was > 100 µM each time.

Take `CC1(C)O[C@@H]([C@@H](O)[C@H](O)C2SCCCS2)[C@@H](CO)O1`: the TGI in the experiment on IGROV1 ovarian, with NCI/ADR-RES ovarian, in the experiment with SF-295 CNS, in the experiment with A498 renal, in the experiment on BT-549 breast and with HT29 colon was > 100 µM throughout. Further, the TGI in the experiment on SNB-75 CNS, in the experiment with T-47D breast, in the experiment on EKVX NSCLC, in the experiment on MOLT-4 leukemia and in the experiment on KM12 colon was > 100 µM in each case.

Take `COc1ccc(-n2c(-c3ccccc3)cc(-c3cccs3)c2-c2cccs2)cc1`: the TGI in the experiment on IGROV1 ovarian, in the experiment on NCI/ADR-RES ovarian, in the experiment on SF-295 CNS, in the experiment on HCC-2998 colon, in the experiment with A498 renal and in the experiment on HT29 colon was > 100 µM in each case. Further, the TGI in the experiment on SNB-75 CNS, with T-47D breast, in the experiment with EKVX NSCLC, with MOLT-4 leukemia, with KM12 colon and in the experiment with MCF7 breast was > 100 µM each time.
